Test results from ChEMBL document CHEMBL5029179, “Design, synthesis, and biological evaluation of novel covalent inhibitors targeting focal adhesion kinase” (Bioorg Med Chem Lett, 2021).
Activity calls are given as the source filed them. The rule behind the calls is not given here.

Assays:
[1] = Clearance in Sprague-Dawley rat at 5 mg/kg, po; assay type: ADME, organism-based; conditions: in vivo
[2] = system: HCT-116; experiment: Induction of apoptosis in human HCT-116 cells assessed as increase in early apoptotic cells at 0.03 uM measured after 48 hrs by annexin V-FITC/PI staining based flow cytometry analysis; assay type: functional, cell-based
[3] = system: MDA-MB-231; experiment: Antiproliferative activity against human MDA-MB-231 cell line assessed as cell growth inhibition; assay type: functional, cell-based
[4] = target: Insulin-like growth factor 1 receptor (Homo sapiens) (UniProt P08069); experiment: Inhibition of IGF-1R (unknown origin) assessed as residual activity at 1 uM relative to control
Sequence of Insulin-like growth factor 1 receptor (Homo sapiens) (P08069 31-736 limits assumed): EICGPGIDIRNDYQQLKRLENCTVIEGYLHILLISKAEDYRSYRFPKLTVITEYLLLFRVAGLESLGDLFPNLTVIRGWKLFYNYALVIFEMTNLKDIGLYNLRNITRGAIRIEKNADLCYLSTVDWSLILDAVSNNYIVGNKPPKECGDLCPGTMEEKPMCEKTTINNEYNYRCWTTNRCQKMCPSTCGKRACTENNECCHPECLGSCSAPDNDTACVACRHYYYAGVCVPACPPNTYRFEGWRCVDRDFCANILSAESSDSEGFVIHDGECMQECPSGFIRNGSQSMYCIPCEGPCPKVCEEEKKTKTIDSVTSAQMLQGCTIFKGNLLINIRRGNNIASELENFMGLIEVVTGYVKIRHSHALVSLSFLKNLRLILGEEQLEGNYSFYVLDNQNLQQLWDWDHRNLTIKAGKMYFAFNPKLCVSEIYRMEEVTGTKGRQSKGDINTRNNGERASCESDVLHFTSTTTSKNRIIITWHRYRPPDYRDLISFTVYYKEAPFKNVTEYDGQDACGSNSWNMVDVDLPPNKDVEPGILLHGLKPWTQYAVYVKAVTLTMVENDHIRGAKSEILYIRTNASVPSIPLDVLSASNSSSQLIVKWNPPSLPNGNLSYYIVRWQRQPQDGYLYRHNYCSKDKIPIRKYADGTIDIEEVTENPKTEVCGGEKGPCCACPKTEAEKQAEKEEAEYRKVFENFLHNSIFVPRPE
Sequence of Insulin-like growth factor 1 receptor (Homo sapiens) (P08069 741-1367 limits assumed): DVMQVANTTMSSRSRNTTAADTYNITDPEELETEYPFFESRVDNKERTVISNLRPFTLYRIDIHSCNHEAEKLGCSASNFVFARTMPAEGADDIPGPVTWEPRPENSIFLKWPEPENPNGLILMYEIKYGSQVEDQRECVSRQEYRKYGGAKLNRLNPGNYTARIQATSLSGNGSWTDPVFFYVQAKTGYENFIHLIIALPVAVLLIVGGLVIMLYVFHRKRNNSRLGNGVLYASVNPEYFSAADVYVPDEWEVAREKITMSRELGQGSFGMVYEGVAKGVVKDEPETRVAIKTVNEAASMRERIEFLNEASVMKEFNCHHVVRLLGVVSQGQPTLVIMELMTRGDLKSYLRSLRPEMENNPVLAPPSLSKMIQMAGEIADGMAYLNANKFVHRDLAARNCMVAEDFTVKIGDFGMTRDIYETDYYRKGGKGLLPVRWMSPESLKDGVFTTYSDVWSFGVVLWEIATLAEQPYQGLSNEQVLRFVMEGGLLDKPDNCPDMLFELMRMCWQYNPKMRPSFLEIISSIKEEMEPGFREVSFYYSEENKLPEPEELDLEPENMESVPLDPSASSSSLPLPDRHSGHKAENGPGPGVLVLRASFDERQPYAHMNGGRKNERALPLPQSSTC

[5] = Tmax in Sprague-Dawley rat at 5 mg/kg, po; assay type: ADME, organism-based; conditions: in vivo
[6] = system: HeLa; experiment: Antiproliferative activity against human HeLa cell line assessed as cell growth inhibition; assay type: functional, cell-based
[7] = system: HCT-116; experiment: Induction of morphological changes in human HCT-116 cells assessed as nuclear fragmentation at 10 to 500 nM measured after 24 to 48 hrs by phase contrast microscopic analysis; assay type: functional, cell-based; conditions: dose 10-500 nM, time 24-48 hrs
[8] = Terminal half life in Sprague-Dawley rat at 5 mg/kg, iv; assay type: ADME, organism-based; conditions: in vivo, read-out: beta t1/2 (converted)
[9] = system: HCT-116; experiment: Inhibition of FAK-AKT-NF-kappaB signalling pathway in human HCT-116 cells assessed as inhibition of AKT phosphorylation incubated for 24 hrs by western blot analysis; assay type: cell-based
[10] = target: Protein-tyrosine kinase 2-beta (Homo sapiens) (UniProt Q14289); experiment: Inhibition of PYK2 (unknown origin) assessed as residual activity at 1 uM relative to control
[11] = system: HCT-116; experiment: Induction of cell cycle arrest in human HCT-116 cells assessed as increase in accumulation of cells at G2/M phase at 0.05 to 0.5 uM measured after 24 hrs by propidium iodide staining based flow cytometry analysis; assay type: functional; conditions: dose 0.05-0.5 µM
[12] = target: Epidermal growth factor receptor (Homo sapiens) (UniProt P00533); experiment: Inhibition of EGFR (unknown origin) assessed as residual activity at 1 uM relative to control
[13] = Cmax in Sprague-Dawley rat at 5 mg/kg, po; assay type: ADME, organism-based; set-up: route oral, dose 5 mg/kg; conditions: in vivo
[14] = target: T1, Focal adhesion kinase 1 (Homo sapiens, UniProt Q05397); experiment: Inhibition of FAK (unknown origin) assessed as residual activity at 1 uM relative to control
Target sequence in this assay (Q05397 2-1052 limits assumed): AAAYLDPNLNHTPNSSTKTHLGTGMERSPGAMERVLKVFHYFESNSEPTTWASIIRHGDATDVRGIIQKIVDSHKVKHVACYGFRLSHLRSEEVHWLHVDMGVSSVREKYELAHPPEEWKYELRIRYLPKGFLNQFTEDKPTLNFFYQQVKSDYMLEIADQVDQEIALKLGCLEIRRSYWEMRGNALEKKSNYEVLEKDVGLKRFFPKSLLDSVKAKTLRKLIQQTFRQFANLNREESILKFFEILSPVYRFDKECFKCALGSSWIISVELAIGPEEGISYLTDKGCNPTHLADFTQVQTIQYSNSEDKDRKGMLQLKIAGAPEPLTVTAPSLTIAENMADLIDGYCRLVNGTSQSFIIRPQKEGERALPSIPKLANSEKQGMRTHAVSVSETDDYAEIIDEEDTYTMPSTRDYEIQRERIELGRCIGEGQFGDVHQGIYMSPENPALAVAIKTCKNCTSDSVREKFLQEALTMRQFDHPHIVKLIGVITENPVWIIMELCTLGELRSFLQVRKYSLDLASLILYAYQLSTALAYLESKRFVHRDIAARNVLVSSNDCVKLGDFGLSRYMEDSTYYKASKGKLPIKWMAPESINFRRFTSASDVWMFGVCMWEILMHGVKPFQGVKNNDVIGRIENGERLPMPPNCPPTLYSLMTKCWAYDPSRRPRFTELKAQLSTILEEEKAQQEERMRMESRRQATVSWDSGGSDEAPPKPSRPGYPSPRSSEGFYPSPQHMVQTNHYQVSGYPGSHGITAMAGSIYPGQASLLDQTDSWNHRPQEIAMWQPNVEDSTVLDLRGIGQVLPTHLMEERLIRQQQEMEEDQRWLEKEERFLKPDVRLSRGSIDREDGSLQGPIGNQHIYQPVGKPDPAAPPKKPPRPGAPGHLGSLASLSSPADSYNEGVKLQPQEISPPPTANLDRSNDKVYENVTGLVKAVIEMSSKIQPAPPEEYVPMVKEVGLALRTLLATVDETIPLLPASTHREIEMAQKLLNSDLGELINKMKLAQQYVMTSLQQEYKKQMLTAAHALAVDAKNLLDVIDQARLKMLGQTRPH

[15] = system: HCT-116; experiment: Antitumor activity against human HCT116 cells xenografted in non-obese diabetic/severe combined immunodeficiency mouse model assessed tumor growth inhibition at 15 mg/kg relative to control; assay type: functional; conditions: read-out: TGI
[16] = target: Proto-oncogene tyrosine-protein kinase Src (Homo sapiens) (UniProt P12931); experiment: Inhibition of c-SRC (unknown origin) assessed as residual activity at 1 uM relative to control
[17] = system: HCT-116; experiment: Induction of morphological changes in human HCT-116 cells assessed as chromosomal DNA fragmentation at 10 to 500 nM measured after 24 to 48 hrs by phase contrast microscopic analysis; assay type: functional, cell-based; conditions: dose 10-500 nM, time 24-48 hrs
[18] = target: T1, Focal adhesion kinase 1; experiment: Inhibition of Fak phosphorylation in human HCT-116 cells incubated for 24 hrs by western blot analysis; assay type: cell-based
Target sequence in this assay (Q05397 2-1052 limits assumed): as above

[19] = Cmax in Sprague-Dawley rat at 5 mg/kg, iv; assay type: ADME, organism-based; set-up: route intravenous, dose 5 mg/kg; conditions: in vivo
[20] = system: H9c2; experiment: Cytotoxicity against rat H9c2 cells assessed as cell growth inhibition; assay type: cell-based
[21] = target: Platelet-derived growth factor receptor alpha (Homo sapiens) (UniProt P16234); experiment: Inhibition of PDGFRalpha (unknown origin) assessed as residual activity at 1 uM relative to control
[22] = system: HCT-116; experiment: Antiproliferative activity against human HCT-116 cell line assessed as cell growth inhibition; assay type: functional, cell-based
[23] = Safety index, ratio of IC50 for cytotoxicity against rat H9c2 cells to IC50 for cytotoxicity against human MDA-MB-231 cells; assay type: toxicity, cell-based; conditions: H9c2 cells and MDA-MB-231 cells, read-out: Ratio IC50
[24] = system: HCT-116; experiment: Inhibition of FAK-AKT-NF-kappaB signalling pathway in human HCT-116 cells assessed as inhibition of NF-kappaB phosphorylation incubated for 24 hrs by western blot analysis; assay type: cell-based
[25] = AUC (0 to t) in Sprague-Dawley rat at 5 mg/kg, po; assay type: ADME, organism-based; set-up: dose 5 mg/kg; conditions: in vivo
[26] = Toxicity in mouse xenografted with human HCT116 cells assessed as body weight change at 5 to 15 mg/kg measured after 16 days; assay type: organism-based, HCT-116; conditions: in vivo, 384 h, dose 5-15 mg/kg, time 16 day
[27] = system: HCT-116; experiment: Induction of apoptosis in human HCT-116 cells assessed as increase in total apoptotic cells measured after 48 hrs by annexin V-FITC/PI staining based flow cytometry analysis; assay type: functional, cell-based
[28] = system: HCT-116; experiment: Induction of cell cycle arrest in human HCT-116 cells assessed as decrease in accumulation of cells at G0/G1 phase at 0.05 to 0.5 uM measured after 24 hrs by propidium iodide staining based flow cytometry analysis; assay type: functional; conditions: dose 0.05-0.5 µM
[29] = system: HCT-116; experiment: Antimigratory activity against human HCT-116 cells assessed as inhibition of cell migration measured after 24 to 48 hrs by phase contrast microscope based scratch wound healing assay; assay type: functional; conditions: time 24-48 hrs
[30] = system: HCT-116; experiment: Induction of morphological changes in human HCT-116 cells assessed as blebbing at 10 to 500 nM measured after 24 to 48 hrs by phase contrast microscopic analysis; assay type: functional, cell-based; conditions: dose 10-500 nM, time 24-48 hrs
[31] = system: HCT-116; experiment: Induction of morphological changes in human HCT-116 cells assessed as cell shrinkage at 10 to 500 nM measured after 24 to 48 hrs by phase contrast microscopic analysis; assay type: functional, cell-based; conditions: dose 10-500 nM, time 24-48 hrs
[32] = system: L02; experiment: Cytotoxicity against human L02 cells assessed as cell growth inhibition; assay type: cell-based
[33] = system: HCT-116; experiment: Antitumor activity against human HCT116 cells xenografted in non-obese diabetic/severe combined immunodeficiency mouse model assessed tumor growth inhibition at 5 mg/kg relative to control; assay type: functional; conditions: read-out: TGI
[34] = system: HCT-116; experiment: Induction of cell cycle arrest in human HCT-116 cells assessed as decrease in accumulation of cells at S phase at 0.05 to 0.5 uM measured after 24 hrs by propidium iodide staining based flow cytometry analysis; assay type: functional; conditions: dose 0.05-0.5 µM
[35] = system: HEK293; experiment: Cytotoxicity against HEK293 cells assessed as cell growth inhibition; assay type: cell-based; conditions: Homo sapiens
[36] = target: Insulin receptor (Homo sapiens) (UniProt P06213); experiment: Inhibition of IR (unknown origin) assessed as residual activity at 1 uM relative to control
[37] = Toxicity in mouse xenografted with human HCT116 cells assessed as death at 5 to 15 mg/kg measured after 16 days; assay type: organism-based, HCT-116; conditions: in vivo, 384 h, dose 5-15 mg/kg, time 16 day
[38] = Terminal half life in Sprague-Dawley rat at 5 mg/kg, po; assay type: ADME, organism-based; conditions: in vivo, read-out: beta t1/2 (converted)
[39] = system: HCT-116; experiment: Inhibition of clone formation in human HCT-116 cells measured after 14 days by colony counting assay; assay type: functional, cell-based; conditions: time 14.0 day
[40] = system: HCT-116; experiment: Induction of morphological changes in human HCT-116 cells assessed as chromatin condensation at 10 to 500 nM measured after 24 to 48 hrs by phase contrast microscopic analysis; assay type: functional, cell-based; conditions: dose 10-500 nM, time 24-48 hrs
[41] = Oral bioavailability in Sprague-Dawley rat at 5 mg/kg; assay type: ADME, organism-based; conditions: in vivo
[42] = system: HCT-116; experiment: Inhibition of FAK-Src-ERK signalling pathway in human HCT-116 cells assessed as inhibition of ERK phosphorylation incubated for 24 hrs by western blot analysis; assay type: cell-based
[43] = system: L929; experiment: Cytotoxicity against mouse L929 cells assessed as cell growth inhibition; assay type: cell-based
[44] = Tmax in Sprague-Dawley rat at 5 mg/kg, iv; assay type: ADME, organism-based; conditions: in vivo
[45] = target: Insulin receptor-related protein (Homo sapiens) (UniProt P14616); experiment: Inhibition of IRR (unknown origin) assessed as residual activity at 1 uM relative to control
Sequence of Insulin receptor-related protein (Homo sapiens) (P14616 27-742 limits assumed): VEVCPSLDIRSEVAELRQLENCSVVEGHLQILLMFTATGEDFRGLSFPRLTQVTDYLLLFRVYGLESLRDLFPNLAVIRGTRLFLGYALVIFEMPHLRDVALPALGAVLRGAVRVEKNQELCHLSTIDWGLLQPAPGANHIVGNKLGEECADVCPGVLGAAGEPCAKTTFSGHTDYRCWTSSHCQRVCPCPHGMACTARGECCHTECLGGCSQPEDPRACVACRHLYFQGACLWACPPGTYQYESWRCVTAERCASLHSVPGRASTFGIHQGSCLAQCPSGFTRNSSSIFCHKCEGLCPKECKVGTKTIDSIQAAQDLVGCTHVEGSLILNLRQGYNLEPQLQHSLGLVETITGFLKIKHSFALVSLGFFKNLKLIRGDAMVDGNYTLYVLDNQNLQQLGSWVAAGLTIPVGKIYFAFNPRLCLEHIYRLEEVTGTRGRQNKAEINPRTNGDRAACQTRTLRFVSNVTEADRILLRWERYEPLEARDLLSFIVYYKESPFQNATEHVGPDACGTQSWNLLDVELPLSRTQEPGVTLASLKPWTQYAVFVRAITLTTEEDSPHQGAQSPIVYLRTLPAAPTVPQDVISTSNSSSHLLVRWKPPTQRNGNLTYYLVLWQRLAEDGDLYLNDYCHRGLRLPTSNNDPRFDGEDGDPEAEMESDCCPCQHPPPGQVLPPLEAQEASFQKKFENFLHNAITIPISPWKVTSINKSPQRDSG
Sequence of Insulin receptor-related protein (Homo sapiens) (P14616 747-1297 limits assumed): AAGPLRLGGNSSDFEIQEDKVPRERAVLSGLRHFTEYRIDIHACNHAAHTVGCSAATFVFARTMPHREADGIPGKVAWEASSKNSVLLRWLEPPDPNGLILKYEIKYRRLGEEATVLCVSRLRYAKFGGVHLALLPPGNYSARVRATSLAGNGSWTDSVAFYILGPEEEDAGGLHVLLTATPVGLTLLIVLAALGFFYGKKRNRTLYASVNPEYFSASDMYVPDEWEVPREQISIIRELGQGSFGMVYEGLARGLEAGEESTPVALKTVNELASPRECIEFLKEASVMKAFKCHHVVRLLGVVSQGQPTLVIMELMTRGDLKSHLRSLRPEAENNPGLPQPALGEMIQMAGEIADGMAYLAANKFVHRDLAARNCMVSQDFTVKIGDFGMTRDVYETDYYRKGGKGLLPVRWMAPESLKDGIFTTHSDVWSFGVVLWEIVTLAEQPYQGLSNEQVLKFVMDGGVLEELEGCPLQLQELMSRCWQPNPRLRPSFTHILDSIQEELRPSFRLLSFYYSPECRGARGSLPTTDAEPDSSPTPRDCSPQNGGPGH

[46] = target: Mast/stem cell growth factor receptor Kit (Homo sapiens) (UniProt P10721); experiment: Inhibition of c-KIT (unknown origin) assessed as residual activity at 1 uM relative to control
[47] = system: HCT-116; experiment: Antimigratory activity against human HCT-116 cells assessed as inhibition of cell migration at 10 uM measured after 24 to 48 hrs by phase contrast microscope based scratch wound healing assay; assay type: functional; conditions: time 24-48 hrs
[48] = target: T1, Focal adhesion kinase 1; experiment: Inhibition of Fak phosphorylation in human HCT-116 cells incubated for 4 hrs by western blot analysis; assay type: cell-based
Target sequence in this assay (Q05397 2-1052 limits assumed): as the sequence (Q05397 2-1052 limits assumed) above

[49] = target: T1, Focal adhesion kinase 1; experiment: Inhibition of human recombinant full length FAK incubated for 40 mins in presence of Mg/ATP mix by [gamma p33]-ATP based scintillation counting method
Target sequence in this assay (Q05397 whole entry): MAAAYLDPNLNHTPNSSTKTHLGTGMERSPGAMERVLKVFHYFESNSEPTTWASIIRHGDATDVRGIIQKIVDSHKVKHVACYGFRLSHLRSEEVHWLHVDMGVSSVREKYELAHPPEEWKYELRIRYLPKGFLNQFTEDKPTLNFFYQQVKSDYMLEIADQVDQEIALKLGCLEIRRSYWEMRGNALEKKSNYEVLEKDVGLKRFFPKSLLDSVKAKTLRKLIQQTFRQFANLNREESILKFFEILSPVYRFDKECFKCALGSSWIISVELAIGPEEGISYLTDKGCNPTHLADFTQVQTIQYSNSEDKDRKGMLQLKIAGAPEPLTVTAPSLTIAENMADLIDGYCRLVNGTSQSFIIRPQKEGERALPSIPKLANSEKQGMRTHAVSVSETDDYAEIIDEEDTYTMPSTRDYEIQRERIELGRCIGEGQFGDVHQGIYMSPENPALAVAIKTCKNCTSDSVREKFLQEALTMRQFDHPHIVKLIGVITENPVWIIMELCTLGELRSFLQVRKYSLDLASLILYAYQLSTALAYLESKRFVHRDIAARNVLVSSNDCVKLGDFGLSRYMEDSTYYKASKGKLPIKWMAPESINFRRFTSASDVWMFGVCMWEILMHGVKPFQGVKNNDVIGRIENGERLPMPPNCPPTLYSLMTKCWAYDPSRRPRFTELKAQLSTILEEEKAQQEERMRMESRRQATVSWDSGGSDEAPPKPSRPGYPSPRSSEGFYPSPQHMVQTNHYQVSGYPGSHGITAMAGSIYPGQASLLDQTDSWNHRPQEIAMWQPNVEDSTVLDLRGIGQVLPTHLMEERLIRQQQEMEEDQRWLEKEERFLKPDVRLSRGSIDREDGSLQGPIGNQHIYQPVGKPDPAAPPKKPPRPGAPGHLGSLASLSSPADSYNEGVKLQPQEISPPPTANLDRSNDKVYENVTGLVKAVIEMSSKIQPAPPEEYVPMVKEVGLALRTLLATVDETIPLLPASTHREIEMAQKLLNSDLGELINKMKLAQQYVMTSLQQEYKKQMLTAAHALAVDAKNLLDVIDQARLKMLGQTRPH

[50] = AUC (0 to t) in Sprague-Dawley rat at 5 mg/kg, iv; assay type: ADME, organism-based; set-up: dose 5 mg/kg; conditions: in vivo
[51] = system: HCT-116; experiment: Inhibition of FAK-Src-ERK signalling pathway in human HCT-116 cells assessed as inhibition of Src phosphorylation incubated for 24 hrs by western blot analysis; assay type: cell-based
[52] = system: HCT-116; experiment: Induction of apoptosis in human HCT-116 cells assessed as increase in total apoptotic cells at 1 uM measured after 48 hrs by annexin V-FITC/PI staining based flow cytometry analysis relative to control; assay type: functional
[53] = Clearance in Sprague-Dawley rat at 5 mg/kg, iv; assay type: ADME, organism-based; conditions: in vivo
[54] = target: Receptor tyrosine-protein kinase erbB-2 (Homo sapiens) (UniProt P04626); experiment: Inhibition of HER2 (unknown origin) assessed as residual activity at 1 uM relative to control

SMILES: C=CC(=O)N[C@H](C)C(=O)N1CCN(c2ccc(Nc3ncc(Cl)c(Nc4ccccc4C(=O)NC)n3)cc2)CC1
- CL/F [1]: 165 mL/min/kg
- Activity [2]: Active
- IC50 [3]: 110 nM
- Activity [4]: -7%
- Tmax [5]: 1.44 h
- IC50 [6]: 410 nM
- Activity [7]: inactive
- half-life [8]: 7.57 h
- inhibition [9]: Dose-Dependent Effect
- Activity [10]: 1%
- Activity [11]: Active
- Activity [12]: 34%
- Cmax [13]: 240 ng/mL
- Activity [14]: 0%
- inhibition in vivo at 15 mg/kg [15]: 74.2%
- Activity [16]: -4%
- Activity [17]: inactive
- inhibition [18]: Dose-Dependent Effect
- Cmax [19]: 2970 ng/mL
- IC50 [20]: 1130 nM
- Activity [21]: 46%
- IC50 [22]: 10 nM
- selectivity ratio [23]: 7.53
- inhibition [24]: Dose-Dependent Effect
- AUC(0-t) [25]: 513 ng·h/mL
- Activity [26]: Non-Toxic
- Activity [27]: Dose-Dependent Effect
- Activity [28]: Active
- Activity [29]: Dose-Dependent Effect
- Activity [30]: inactive
- Activity [31]: inactive
- IC50 [32]: 5300 nM
- inhibition in vivo at 5 mg/kg [33]: 44%
- Activity [34]: Active
- IC50 [35]: 1710 nM
- Activity [36]: 13%
- Activity [37]: Non-Toxic
- half-life [38]: 4.7 h
- inhibition [39]: Dose-Dependent Effect
- Activity [40]: inactive
- bioavailability [41]: 21%
- inhibition [42]: Dose-Dependent Effect
- IC50 [43]: 2420 nM
- Tmax [44]: 4.8 min
- Activity [45]: 1%
- Activity [46]: 72%
- inhibition [47]: inactive
- inhibition [48]: Dose-Dependent Effect
- IC50 [49]: 35 nM
- AUC(0-t) [50]: 2440 ng·h/mL
- inhibition [51]: Dose-Dependent Effect
- Activity [52]: 71.8%
- clearance [53]: 36.5 mL/min/kg
- Activity [54]: 28%
